Active and inactive are the calls of the source.
How the values were obtained:
Protein Wnt-3a = Protein Wnt-3a (Mus musculus, UniProt P27467); experiment: antagonism of Wnt3a pathway luciferase reporter – Wnt-LIGHT cells, luminescence, selectivity assay for Gli-SUFU antagonist project, dose response (AID 651570); assay type: functional; conditions: read-out: IC50_Mean;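 note: Wnt-LIGHT reporter cells stimulated with conditioned medium from Wnt3a-producing cells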
[1] = target: T1, High affinity choline transporter 1 (Homo sapiens, UniProt Q9GZV3); experiment: human choline transporter blockers, potency – cell-based, 5-point CRC, membrane potential dye, dose response (AID 504840); assay type: functional
T1 sequence (Q9GZV3 whole entry): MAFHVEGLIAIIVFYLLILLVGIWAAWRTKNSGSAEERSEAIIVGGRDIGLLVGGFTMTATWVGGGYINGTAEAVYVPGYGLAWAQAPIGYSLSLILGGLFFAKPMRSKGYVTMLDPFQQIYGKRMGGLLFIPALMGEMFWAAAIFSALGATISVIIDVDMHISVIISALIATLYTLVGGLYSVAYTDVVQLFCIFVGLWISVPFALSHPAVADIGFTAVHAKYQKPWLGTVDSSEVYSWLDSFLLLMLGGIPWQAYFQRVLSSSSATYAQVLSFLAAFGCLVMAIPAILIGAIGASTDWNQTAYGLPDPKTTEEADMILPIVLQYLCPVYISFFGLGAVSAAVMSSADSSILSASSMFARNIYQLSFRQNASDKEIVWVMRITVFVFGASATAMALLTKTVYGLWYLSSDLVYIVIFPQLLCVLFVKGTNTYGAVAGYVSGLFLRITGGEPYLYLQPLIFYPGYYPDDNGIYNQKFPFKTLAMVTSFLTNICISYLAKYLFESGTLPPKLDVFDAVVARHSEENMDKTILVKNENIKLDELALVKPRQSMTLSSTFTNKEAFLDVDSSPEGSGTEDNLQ

fMet-Leu-Phe receptor = target: T2, fMet-Leu-Phe receptor (Homo sapiens, UniProt P21462); experiment: formyl peptide receptor binders – dose response (AID 519); assay type: functional
T2 sequence (P21462 whole entry): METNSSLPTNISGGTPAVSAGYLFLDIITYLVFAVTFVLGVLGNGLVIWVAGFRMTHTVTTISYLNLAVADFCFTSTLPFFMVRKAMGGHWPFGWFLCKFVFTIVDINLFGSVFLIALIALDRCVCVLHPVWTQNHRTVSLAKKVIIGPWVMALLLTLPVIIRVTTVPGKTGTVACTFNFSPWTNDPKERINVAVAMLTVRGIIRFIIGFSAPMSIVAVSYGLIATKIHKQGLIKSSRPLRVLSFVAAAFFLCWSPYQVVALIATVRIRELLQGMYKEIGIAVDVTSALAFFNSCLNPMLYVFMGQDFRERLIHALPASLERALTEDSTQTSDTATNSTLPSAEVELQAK

Protein skinhead-1 = target: T3, Protein skinhead-1 (Caenorhabditis elegans, UniProt P34707); assay type: functional
T3 sequence (P34707 whole entry): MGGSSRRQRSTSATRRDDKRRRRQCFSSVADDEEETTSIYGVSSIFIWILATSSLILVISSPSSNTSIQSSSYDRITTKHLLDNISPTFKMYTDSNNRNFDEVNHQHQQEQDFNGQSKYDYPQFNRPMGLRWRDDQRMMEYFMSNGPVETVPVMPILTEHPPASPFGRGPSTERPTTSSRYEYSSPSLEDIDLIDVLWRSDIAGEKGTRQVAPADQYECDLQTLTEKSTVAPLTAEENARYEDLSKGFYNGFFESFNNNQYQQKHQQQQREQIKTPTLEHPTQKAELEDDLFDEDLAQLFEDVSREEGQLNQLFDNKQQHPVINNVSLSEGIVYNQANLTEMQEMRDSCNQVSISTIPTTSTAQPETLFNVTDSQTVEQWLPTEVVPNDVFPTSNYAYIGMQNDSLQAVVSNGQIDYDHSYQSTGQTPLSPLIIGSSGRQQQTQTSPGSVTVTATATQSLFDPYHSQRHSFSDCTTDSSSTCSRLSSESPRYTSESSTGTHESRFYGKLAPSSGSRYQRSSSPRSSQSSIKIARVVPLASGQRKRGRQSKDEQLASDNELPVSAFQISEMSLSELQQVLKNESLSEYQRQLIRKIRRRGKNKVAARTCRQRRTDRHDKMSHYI

[2] = NIH-3T3 fibroblast cytotoxicity, dose response, cytotoxicity control, cell-based, fluorescence, Alamar Blue, secondary assay (AID 2327); assay type: functional;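 note: NIH-3T3 mouse fibroblasts cultured with fluconazole at 8 µg/mL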
[3] = fluconazole-exposed Candida albicans growth modulators – fluorescence, retest, confirmation (AID 2467); assay type: functional, cell-based
cells = assay type: functional
[4] = viability loss in HeLa cells – cytotoxicity control for MgcRacGAP inhibitor project, dose response (AID 624300); assay type: functional
[5] = target: T4, Rac GTPase-activating protein 1 (Homo sapiens, UniProt Q9H0H5); experiment: blockers of MgcRacGAP-driven Rac1 GTP hydrolysis – biochemical, ADP Hunter fluorescence, primary and confirmatory, confirmation (AID 624330); assay type: functional
T4 sequence (Q9H0H5 whole entry): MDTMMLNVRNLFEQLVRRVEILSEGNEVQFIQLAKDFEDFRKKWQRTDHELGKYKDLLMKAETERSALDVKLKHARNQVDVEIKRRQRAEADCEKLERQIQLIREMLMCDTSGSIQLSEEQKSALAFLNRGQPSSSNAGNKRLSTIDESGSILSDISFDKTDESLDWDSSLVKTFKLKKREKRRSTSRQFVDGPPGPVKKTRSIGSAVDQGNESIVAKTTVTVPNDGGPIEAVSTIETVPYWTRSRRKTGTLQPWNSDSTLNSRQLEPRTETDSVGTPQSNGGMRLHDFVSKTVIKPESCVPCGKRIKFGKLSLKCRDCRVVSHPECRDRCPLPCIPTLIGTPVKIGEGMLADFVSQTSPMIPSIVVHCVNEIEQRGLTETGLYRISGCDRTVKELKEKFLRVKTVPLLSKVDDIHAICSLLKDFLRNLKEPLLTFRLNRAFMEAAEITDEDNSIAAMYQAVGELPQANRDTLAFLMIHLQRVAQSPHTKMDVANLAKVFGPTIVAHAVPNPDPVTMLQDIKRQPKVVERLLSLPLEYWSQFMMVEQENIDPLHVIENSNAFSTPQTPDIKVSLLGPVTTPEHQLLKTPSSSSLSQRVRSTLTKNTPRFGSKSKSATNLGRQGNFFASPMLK

Vero = experiment: cells; assay type: functional, cell-based; conditions: Chlorocebus sabaeus
[6] = target: T5, Fructose-bisphosphate aldolase (Mycobacterium tuberculosis, UniProt P9WQA3); experiment: Fluorescence-based biochemical high throughput dose response assay for inhibitors of the fructose-bisphosphate aldolase (FBA) of M. tuberculosis.; assay type: functional
T5 sequence (P9WQA3 whole entry): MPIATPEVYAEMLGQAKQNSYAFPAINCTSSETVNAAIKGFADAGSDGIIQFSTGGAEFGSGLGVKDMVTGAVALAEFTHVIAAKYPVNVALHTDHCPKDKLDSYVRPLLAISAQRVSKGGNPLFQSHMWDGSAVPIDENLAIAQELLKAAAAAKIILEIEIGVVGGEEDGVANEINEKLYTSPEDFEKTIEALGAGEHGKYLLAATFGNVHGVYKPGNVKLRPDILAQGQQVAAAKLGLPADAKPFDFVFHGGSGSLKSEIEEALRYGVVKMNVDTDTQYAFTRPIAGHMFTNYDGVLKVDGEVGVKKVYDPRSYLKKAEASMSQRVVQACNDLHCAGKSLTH

[7] = Fluorescence-based cell-based high throughput dose response assay for inhibitors of the interaction of nucleotide-binding oligomerization domain containing 2 (NOD2) and the receptor-interacting serine-threonine kinase 2 (RIPK2).; assay type: functional; conditions: Homo sapiens
INS1 = experiment: INS-1E survival protection against cytokine death – cell-based, luminescence, retest, dose response (AID 449756); assay type: functional; conditions: Rattus norvegicus;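 note: cell death triggered by IL-1 beta plus TNF-alpha plus IFN-gamma mixture; protective hits raise ATP signal compared with cytokine alone wells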
[8] = reduction of Shn3 3'UTR-driven luciferase in osteoblasts – cell-based, Clone20 osteoblasts, firefly luciferase, cherry-picked, dose response (AID 624132); assay type: functional;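 note: firefly luciferase luminescence from reporter carrying the Shn3 3'UTR in osteoblasts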
[9] = loss of viability in HepG2 cells – cell-based, CellTiter-Glo, cherry-picked, cytotoxicity control for Shn3 inhibitor project, dose response (AID 624134); assay type: functional
[10] = non-specific 3'UTR reporter inhibition in Clone20-Shn3RL – cell-based, Renilla luciferase, cherry-picked, counter-screen for Shn3 inhibitor project, dose response (AID 624133); assay type: functional

Sequence of Protein Wnt-3a (P27467 whole entry): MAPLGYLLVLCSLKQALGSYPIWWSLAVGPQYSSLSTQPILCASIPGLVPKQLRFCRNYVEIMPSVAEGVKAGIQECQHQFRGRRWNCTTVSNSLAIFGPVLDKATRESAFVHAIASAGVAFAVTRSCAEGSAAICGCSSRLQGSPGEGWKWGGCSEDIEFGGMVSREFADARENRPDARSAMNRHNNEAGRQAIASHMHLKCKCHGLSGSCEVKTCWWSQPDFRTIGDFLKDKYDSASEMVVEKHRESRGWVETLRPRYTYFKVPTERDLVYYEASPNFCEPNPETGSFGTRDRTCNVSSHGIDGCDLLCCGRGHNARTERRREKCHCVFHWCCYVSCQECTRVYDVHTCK

With `CC1Sc2n(c3ccccc3[n+]2C)N=C1c1ccccc1` (configuration not stated) the IC50 (Protein Wnt-3a) was 3.6 µM (active).

In the case of `O=C(NNC(=S)Nc1ccc(Cl)cc1)c1ccccc1OC(F)F`, the IC50 [1] is reported as 13.8 µM (active).

With `COc1ccc(NC(=O)C(c2ccc(C)cc2)N(C)C(=O)c2cnccn2)cc1` (configuration not stated) the Ki (fMet-Leu-Phe receptor) was > 66.7 µM (inactive).

With `CN1/C(=C\C(=O)COC(=O)CNC(=O)c2ccc3ccccc3c2)C(C)(C)c2ccccc21` the IC50 (Protein skinhead-1) was > 100 µM (inactive) and the IC50 (Protein Wnt-3a) was 50 µM (inactive).

In the case of `O=[N+]([O-])c1ccc(Nc2ccccc2)c2nonc12`, the EC50 [2] is reported as > 150 µM (inconclusive), the EC50 [3] is reported as < 30 nM (active) and the IC50 (cells) is reported as 7.68 µM (active). For the same molecule, the IC50 [1] was 11.8 µM (active) and the IC50 (Protein skinhead-1) was 41.5 µM (active).

With `Cc1cc(C)c(OCCCCNCc2ccccc2)c(Cl)c1` the CC50 [4] was 69.7 µM (active) and the IC50 [5] was 91.9 µM (active).

In the case of `O=C(CCCN1C(=O)/C(=C\c2ccco2)SC1=S)Nc1ccc2ccccc2c1`, the IC50 (Vero) is reported as 8.01 µM (active).

For `CC(=O)N1CCN(C(=O)c2cc(-c3ccc(Cl)s3)nc3ccccc23)CC1`, the IC50 [6] was 1.17 µM (active).

For `Cc1ccc(C(=O)C[n+]2cc(Br)cc(Br)c2)cc1`, the IC50 [1] was 11.4 µM (active).

With `Nc1ncc2c(n1)-c1ccccc1CC2` the IC50 [6] was 1.53 µM (active).

In the case of `O=C(NCCN1C(=O)S/C(=C\c2ccc(Cl)c([N+](=O)[O-])c2)C1=O)C1=COCCO1`, the IC50 [7] is reported as 1.62 µM (active).

With `COc1ccc(NS(=O)(=O)c2ccc(N3CCCCC3)c(N)c2)cc1` the AC50 (INS1) was 3.22 µM (active), the AC50 [8] was 824 nM (active) and the AC50 [9] was 4.01 µM (active). For the same molecule, the AC50 [10] was 1.51 µM (active) and the IC50 (Protein Wnt-3a) was 0.102 µM (active).

— ChEMBL document CHEMBL1201862, “PubChem BioAssay data set” (2004)
